Article PMC11322497 (Frontiers in Pharmacology, 2024)

Test system: high fat diet (HFD) rabbit model of metabolic-associated steatohepatitis (MASH)
Assay: HFD rabbit study, prolonged 4-week treatment: liver histomorphology and immunohistochemistry
Assay type: in vivo, New Zealand White rabbits
Conditions: weeks 9–12; for Ballooning score 0 (no ballooning), share of animals / Ballooning score 1 (few ballooned cells), share of animals / Ballooning score 2 (prominent ballooning), share of animals / Fibrosis (Ishak Score) 0, share of animals / Fibrosis (Ishak Score) 1, share of animals / Fibrosis (Ishak Score) 2, share of animals / Fibrosis (Ishak Score) 3, share of animals / Fibrosis (Ishak Score) 4, share of animals / Fibrosis (Ishak Score) 5, share of animals / Inflammation score 0 (no foci), share of animals / Inflammation score 1 (<2 foci), share of animals / Inflammation score 2 (2–4 foci), share of animals / Inflammation score 3 (> 4 foci), share of animals: n=7
Protocol: After 1 week (W) of RD, the animals (n = 44) were randomly assigned to the following groups (Table 1B): • Control rabbits continued to receive a RD for 12 weeks and were treated with vehicle for 5 days a week (days 1–5, p.o.) during the last 4 weeks before culling (RD + 4W Veh group); • Rabbits received a HFD for 8 weeks and were culled (HFD 8W group); • Rabbits received a HFD for 12 weeks and were treated with vehicle for 5 days a week (days 1–5, p.o.) during the last 4 weeks before culling (HFD+4W Veh group); • Rabbits received a HFD for 12 weeks and were treated with GB1211 (0.3 mg/kg) for 5 days a week (days 1–5, p.o.) during the last 4 weeks before culling (HFD + 4W 0.3 mg group); • Rabbits received a HFD for 12 weeks and were treated with GB1211 (1.0 mg/kg) for 5 days a week (days 1–5, p.o.) during the last 4 weeks before culling (HFD + 4W 1.0 mg group); • Rabbits received a HFD for 12 weeks and were treated with GB1211 (5.0 mg/kg) for 5 days a week (days 1–5, p.o.) during the last 4 weeks before culling (HFD + 4W 5.0 mg group).
Liver specimens were fixed in 10% buffered formalin (Sigma-Aldrich Corp., St. Louis, MO), paraffin embedded and sectioned at a thickness of 5 μm with a microtome. The slides were stained with hematoxylin and eosin (H&E; both Bio-Optica, Milan, Italy), following standard protocols for histological analysis, to evaluate the general morphology and tissue structure, and then analyzed to evaluate inflammation and […] using Giemsa and Masson’s trichrome staining, respectively. Briefly, deparaffinized and rehydrated sections were incubated with Giemsa (Bio-Optica) in distilled water at ratio 1:1 or with Masson’s trichrome (Bio-Optica), following the manufacturer’s instructions, as previously described ([Vignozzi et al., 2014]). To evaluate lipid accumulation, liver specimens were also cryosectioned at a thickness of 8 μm, fixed with 4% paraformaldehyde, treated for 2–5 min with isopropanol and stained with Oil Red O (Bio-Optica) for 20 min, following the manufacturer’s instructions.
In liver, collagen content evaluation for fibrosis grade and quantification was conducted by staining using Picrosirius Red Stain kit (Bio-Optica), as per manufacturer’s instructions. Briefly, deparaffinized and rehydrated sections were incubated with the staining solution for 50 min, rinsed with the appropriate reagents and with distilled water, dehydrated through ascending alcohols and xylene, and mounted, as previously described ([Comeglio et al., 2017]).
The expression of RAM11, galectin-3, and vimentin was evaluated by immunohistochemical analysis on 5 μm thick paraffin embedded liver sections. Briefly, deparaffinized and rehydrated sections were incubated overnight at 4°C with mouse monoclonal anti-RAM11 (1:80; Dako, Carpenteria, CA), mouse monoclonal anti-galectin-3 (1:100; Abcam, Cambridge, United Kingdom) or mouse monoclonal anti-vimentin (1:800; Santa Cruz Biotechnology, Dallas, TX) antibodies, followed by biotinylated anti-mouse secondary antibody (Millipore, Burlington, MA) and streptavidin-peroxidase complex (Millipore). The reaction product was developed with 3′,3′-diaminobenzidine tetrahydrochloride as chromogen (Merck KgaA, Darmstadt, Germany). Negative controls were performed avoiding primary antibody. Percentage of the sampled area for galectin-3 and vimentin staining was obtained on ×200 and ×40 original magnification slides, respectively, using ImageJ software on five fields for each slide. Semi-quantitative staining of percentage of the sampled area for Picrosirius Red, Oil Red O, galectin-3 and vimentin was obtained using open source Java-based ImageJ software (Fiji bundle, https://imagej.net/). All slides were evaluated blindly and photographed using a Nikon Microphot-FXA microscope (Nikon, Tokyo, Japan).

## OC[C@H]1O[C@H](Sc2cncc(Br)c2)[C@H](O)[C@@H](n2cc(-c3cc(F)c(F)c(F)c3)nn2)[C@H]1O [selvigaltin]
HFD rabbits, 0.3 mg and 5.0 mg dosages
  Picrosirius Red percentage of fibrosis area: only partially counteracted
HFD rabbits, 0.3 mg/kg p.o.
  Ballooning score 0 (no ballooning), share of animals: 0.0%
  Ballooning score 1 (few ballooned cells), share of animals: 42.9%
  Ballooning score 2 (prominent ballooning), share of animals: 57.1%
  Fibrosis (Ishak Score) 0, share of animals: 0.0%
  Fibrosis (Ishak Score) 1, share of animals: 14.3%
  Fibrosis (Ishak Score) 2, share of animals: 0.0%
  Fibrosis (Ishak Score) 3, share of animals: 57.1%
  Fibrosis (Ishak Score) 4, share of animals: 28.6%
  Fibrosis (Ishak Score) 5, share of animals: 0.0%
  Inflammation score 0 (no foci), share of animals: 14.3%
  Inflammation score 1 (<2 foci), share of animals: 42.8%
  Inflammation score 2 (2–4 foci), share of animals: 42.8%
  Inflammation score 3 (> 4 foci), share of animals: 0.0%
HFD rabbits, 1.0 mg/kg p.o.
  Ballooning score 0 (no ballooning), share of animals: 0.0%
  Ballooning score 1 (few ballooned cells), share of animals: 85.7%
  Ballooning score 2 (prominent ballooning), share of animals: 14.3%
  Fibrosis (Ishak Score) 0, share of animals: 0.0%
  Fibrosis (Ishak Score) 1, share of animals: 0.0%
  Fibrosis (Ishak Score) 2, share of animals: 85.7%
  Fibrosis (Ishak Score) 3, share of animals: 14.3%
  Fibrosis (Ishak Score) 4, share of animals: 0.0%
  Fibrosis (Ishak Score) 5, share of animals: 0.0%
  Inflammation score 0 (no foci), share of animals: 14.3%
  Inflammation score 1 (<2 foci), share of animals: 71.4%
  Inflammation score 2 (2–4 foci), share of animals: 14.3%
  Inflammation score 3 (> 4 foci), share of animals: 0.0%
HFD rabbits, 1.0 mg/kg, not significantly different from controls
  Liver steatosis (Oil Red O staining): mild beneficial effect
HFD rabbits, 1.0 mg/kg, p < 0.05 vs. HFD + Veh
  Picrosirius Red percentage of fibrosis area: normalized
HFD rabbits, 1.0 mg/kg, p = 0.072 vs. HFD + Veh
  Vimentin positivity in liver: borderline reduction
HFD rabbits, 5.0 mg/kg p.o.
  Ballooning score 0 (no ballooning), share of animals: 0.0%
  Ballooning score 1 (few ballooned cells), share of animals: 57.1%
  Ballooning score 2 (prominent ballooning), share of animals: 42.9%
  Fibrosis (Ishak Score) 0, share of animals: 0.0%
  Fibrosis (Ishak Score) 1, share of animals: 0.0%
  Fibrosis (Ishak Score) 2, share of animals: 42.8%
  Fibrosis (Ishak Score) 3, share of animals: 42.8%
  Fibrosis (Ishak Score) 4, share of animals: 14.3%
  Fibrosis (Ishak Score) 5, share of animals: 0.0%
  Inflammation score 0 (no foci), share of animals: 0.0%
  Inflammation score 1 (<2 foci), share of animals: 100.0%
  Inflammation score 2 (2–4 foci), share of animals: 0.0%
  Inflammation score 3 (> 4 foci), share of animals: 0.0%
HFD rabbits, 0.3, 1.0, 5.0 mg/kg
  Liver steatosis (Oil Red O staining): without significant differences among HFD groups
HFD rabbits, all selvigaltin treatments (0.3, 1.0, 5.0 mg/kg)
  Galectin-3 immunohistochemical positivity in liver: only partially abated
